Experimental data taken from publication PMC7026418, “The kinase polypharmacology landscape of clinical PARP inhibitors” (Scientific Reports, 2020).
Read-outs that look alike come from different tables or passages of the source. Blank lines part the entries; values can stand above or below the compound they belong to.

How the values were obtained:
Experiment in all cases: biochemical
Parameters in all cases: DiscoveRx KINOMEscan active site-directed competition binding; percent of control kinase bound to immobilised ligand
BMPR2 = target: T1, BMPR2 (Homo sapiens, UniProt Q13873)
T1 sequence (Q13873 1-1038): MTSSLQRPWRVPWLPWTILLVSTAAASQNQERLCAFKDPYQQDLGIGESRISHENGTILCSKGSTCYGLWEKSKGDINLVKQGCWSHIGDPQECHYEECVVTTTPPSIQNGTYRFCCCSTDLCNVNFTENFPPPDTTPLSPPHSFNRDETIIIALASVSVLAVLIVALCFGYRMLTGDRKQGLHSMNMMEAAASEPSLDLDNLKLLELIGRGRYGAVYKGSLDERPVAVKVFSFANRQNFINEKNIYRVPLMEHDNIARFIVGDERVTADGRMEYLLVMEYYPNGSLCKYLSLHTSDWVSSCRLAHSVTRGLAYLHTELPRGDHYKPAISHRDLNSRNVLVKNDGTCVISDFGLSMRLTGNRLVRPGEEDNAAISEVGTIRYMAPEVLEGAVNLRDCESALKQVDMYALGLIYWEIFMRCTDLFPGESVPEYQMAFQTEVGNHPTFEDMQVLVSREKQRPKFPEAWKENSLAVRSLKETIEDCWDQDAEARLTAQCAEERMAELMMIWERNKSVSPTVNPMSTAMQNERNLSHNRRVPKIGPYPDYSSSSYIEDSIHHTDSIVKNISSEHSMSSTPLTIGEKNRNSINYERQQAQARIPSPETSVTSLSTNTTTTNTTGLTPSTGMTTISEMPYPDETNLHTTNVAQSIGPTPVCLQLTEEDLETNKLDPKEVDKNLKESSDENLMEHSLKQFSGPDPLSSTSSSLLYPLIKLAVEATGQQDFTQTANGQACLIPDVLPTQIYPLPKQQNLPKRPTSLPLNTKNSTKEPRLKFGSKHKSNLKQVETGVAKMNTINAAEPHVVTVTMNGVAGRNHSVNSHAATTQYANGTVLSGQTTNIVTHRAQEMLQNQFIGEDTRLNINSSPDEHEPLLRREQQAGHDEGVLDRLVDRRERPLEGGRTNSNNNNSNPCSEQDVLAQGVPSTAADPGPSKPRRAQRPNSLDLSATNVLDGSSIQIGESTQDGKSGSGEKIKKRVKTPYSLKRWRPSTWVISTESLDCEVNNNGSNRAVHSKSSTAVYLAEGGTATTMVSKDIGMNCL

EGFR(G719S) = EGFR(G719S) (Homo sapiens, UniProt P00533, G719S)
Chain of EGFR(G719S) (P00533 whole entry G719S): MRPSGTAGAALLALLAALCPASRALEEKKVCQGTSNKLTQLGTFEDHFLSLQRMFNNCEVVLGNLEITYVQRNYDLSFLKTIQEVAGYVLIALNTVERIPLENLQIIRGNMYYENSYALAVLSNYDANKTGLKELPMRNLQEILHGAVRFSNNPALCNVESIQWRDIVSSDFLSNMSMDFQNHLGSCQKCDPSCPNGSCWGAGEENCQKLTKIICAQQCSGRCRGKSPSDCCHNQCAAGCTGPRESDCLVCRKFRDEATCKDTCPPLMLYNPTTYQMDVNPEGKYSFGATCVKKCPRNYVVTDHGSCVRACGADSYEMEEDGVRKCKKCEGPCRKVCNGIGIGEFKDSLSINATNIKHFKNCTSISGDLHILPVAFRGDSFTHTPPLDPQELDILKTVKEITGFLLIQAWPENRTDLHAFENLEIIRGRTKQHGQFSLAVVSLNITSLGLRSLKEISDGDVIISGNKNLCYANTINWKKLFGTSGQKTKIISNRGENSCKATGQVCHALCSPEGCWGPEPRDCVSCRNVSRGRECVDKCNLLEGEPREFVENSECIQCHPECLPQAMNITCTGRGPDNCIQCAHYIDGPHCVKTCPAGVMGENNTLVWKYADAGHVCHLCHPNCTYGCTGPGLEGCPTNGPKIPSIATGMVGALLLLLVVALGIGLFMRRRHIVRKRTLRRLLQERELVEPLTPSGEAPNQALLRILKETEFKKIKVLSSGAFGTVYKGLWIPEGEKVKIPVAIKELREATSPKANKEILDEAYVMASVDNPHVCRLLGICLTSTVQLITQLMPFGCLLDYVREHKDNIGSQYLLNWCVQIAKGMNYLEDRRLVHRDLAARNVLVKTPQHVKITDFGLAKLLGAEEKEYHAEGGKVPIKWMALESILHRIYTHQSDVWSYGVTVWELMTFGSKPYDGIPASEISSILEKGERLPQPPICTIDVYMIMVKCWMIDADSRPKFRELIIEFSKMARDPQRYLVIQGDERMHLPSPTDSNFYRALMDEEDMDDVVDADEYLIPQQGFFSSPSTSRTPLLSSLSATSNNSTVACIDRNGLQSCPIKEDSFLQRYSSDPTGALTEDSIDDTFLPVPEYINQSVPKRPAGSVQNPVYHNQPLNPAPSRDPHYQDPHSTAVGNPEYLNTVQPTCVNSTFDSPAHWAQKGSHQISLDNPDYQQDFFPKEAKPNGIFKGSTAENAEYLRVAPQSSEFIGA

IGF1R = IGF1R (Homo sapiens, UniProt P08069)
Chain of IGF1R (P08069 whole entry): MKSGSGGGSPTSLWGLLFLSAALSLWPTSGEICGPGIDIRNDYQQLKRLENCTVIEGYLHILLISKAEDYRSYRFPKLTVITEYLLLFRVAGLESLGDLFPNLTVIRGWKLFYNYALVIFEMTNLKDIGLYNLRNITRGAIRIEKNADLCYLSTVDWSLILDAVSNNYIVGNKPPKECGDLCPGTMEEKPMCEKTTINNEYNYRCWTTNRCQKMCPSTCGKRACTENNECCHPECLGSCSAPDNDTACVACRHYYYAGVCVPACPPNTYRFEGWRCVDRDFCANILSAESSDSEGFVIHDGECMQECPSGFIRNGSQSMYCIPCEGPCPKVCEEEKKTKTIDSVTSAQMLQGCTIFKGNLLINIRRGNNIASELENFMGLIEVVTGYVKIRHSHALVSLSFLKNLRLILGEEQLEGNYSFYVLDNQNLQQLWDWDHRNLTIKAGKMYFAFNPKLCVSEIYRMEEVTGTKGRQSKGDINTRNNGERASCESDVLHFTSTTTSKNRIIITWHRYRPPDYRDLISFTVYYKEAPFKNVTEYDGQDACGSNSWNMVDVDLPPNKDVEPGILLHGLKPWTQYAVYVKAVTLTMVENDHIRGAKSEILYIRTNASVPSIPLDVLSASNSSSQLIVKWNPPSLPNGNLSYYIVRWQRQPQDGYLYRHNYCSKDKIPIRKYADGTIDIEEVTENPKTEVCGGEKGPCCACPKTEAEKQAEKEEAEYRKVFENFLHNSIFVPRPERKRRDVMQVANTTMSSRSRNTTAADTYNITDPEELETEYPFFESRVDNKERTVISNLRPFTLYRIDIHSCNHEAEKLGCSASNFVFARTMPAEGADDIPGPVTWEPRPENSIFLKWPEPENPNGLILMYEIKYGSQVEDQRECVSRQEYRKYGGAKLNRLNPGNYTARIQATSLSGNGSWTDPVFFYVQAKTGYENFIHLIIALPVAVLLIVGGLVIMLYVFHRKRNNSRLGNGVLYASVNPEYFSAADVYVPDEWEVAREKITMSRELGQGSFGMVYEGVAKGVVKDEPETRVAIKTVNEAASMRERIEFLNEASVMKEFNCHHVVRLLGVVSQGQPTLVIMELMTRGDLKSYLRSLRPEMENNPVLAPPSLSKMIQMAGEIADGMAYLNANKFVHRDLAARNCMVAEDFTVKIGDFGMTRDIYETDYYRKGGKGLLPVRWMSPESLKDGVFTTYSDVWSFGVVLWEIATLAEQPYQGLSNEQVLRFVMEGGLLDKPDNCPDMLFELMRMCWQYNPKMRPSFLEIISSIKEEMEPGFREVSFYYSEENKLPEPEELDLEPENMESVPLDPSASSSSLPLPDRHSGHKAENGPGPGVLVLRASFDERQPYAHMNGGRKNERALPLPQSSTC

MAP4K3 = target: T2, MAP4K3 (Homo sapiens, UniProt Q8IVH8)
T2 sequence (Q8IVH8 1-894): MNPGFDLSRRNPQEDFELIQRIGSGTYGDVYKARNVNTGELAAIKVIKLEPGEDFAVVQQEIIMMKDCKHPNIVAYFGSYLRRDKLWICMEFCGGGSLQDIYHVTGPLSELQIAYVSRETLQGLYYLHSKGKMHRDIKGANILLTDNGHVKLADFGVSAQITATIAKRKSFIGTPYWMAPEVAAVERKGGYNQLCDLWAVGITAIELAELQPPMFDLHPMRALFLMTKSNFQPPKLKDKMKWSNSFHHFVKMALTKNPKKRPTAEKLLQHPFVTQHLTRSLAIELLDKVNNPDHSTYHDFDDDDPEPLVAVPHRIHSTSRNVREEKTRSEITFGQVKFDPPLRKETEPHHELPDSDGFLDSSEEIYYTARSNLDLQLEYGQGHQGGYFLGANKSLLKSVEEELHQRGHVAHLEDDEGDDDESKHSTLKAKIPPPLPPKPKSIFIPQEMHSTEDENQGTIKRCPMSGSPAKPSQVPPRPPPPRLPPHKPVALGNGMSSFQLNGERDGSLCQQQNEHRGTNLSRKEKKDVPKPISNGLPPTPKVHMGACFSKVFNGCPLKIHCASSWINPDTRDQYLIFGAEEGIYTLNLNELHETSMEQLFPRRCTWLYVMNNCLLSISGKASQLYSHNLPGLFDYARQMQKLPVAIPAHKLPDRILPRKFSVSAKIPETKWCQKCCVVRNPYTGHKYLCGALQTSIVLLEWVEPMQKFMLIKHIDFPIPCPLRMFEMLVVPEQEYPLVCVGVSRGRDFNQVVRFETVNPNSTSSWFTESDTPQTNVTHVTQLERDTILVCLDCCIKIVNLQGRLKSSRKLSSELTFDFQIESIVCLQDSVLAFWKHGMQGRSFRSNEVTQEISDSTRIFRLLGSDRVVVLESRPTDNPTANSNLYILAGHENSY

MST4 = target: T3, MST4 (Homo sapiens, UniProt Q9P289)
T3 construct: gene STK26
T3 sequence (Q9P289 whole entry): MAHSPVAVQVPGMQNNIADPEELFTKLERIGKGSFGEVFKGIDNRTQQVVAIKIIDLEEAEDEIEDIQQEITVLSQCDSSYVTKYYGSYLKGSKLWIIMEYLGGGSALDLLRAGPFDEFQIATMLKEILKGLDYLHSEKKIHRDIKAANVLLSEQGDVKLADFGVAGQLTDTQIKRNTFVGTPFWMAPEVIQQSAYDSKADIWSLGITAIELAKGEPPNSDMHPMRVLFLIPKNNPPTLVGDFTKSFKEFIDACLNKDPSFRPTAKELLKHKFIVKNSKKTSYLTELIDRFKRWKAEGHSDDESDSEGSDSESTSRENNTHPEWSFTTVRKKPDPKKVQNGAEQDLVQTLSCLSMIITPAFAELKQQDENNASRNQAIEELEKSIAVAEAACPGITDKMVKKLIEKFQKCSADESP

[1] = target: T4, TYK2(JH1domain-catalytic) (Homo sapiens, UniProt P29597)
T4 construct: JH1domain-catalytic
T4 sequence (P29597 whole entry): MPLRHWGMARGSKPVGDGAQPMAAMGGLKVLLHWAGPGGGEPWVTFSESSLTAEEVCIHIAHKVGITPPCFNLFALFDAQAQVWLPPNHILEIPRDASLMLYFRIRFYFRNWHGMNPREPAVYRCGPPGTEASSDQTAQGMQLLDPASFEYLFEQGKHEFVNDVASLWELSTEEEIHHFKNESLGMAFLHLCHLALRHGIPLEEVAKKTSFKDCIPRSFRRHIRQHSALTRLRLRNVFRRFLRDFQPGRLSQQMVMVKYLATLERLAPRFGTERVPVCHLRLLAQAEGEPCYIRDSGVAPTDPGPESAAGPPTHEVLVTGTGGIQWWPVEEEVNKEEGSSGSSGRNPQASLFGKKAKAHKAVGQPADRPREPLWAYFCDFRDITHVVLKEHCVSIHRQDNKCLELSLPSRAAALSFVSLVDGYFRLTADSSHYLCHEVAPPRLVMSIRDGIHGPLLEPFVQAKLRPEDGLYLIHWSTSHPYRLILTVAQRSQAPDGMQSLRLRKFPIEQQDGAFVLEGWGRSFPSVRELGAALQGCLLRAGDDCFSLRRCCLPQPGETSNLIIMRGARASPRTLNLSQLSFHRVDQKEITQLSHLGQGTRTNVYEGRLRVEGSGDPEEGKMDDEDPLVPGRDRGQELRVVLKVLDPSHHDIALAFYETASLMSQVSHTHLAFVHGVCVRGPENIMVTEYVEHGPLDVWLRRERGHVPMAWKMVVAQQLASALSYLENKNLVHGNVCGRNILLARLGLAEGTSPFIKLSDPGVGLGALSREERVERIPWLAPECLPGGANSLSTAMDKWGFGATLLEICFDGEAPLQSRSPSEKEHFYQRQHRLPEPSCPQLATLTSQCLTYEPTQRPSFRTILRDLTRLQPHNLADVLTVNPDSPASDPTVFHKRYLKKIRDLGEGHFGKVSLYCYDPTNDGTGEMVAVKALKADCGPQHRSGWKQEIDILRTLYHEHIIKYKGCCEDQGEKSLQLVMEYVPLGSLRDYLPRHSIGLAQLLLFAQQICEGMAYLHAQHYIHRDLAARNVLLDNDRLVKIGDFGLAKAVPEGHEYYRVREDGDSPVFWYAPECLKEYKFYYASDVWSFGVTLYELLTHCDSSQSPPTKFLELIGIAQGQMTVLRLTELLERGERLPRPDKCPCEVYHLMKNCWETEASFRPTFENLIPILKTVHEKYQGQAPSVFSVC

p38-delta = target: T5, p38-delta (Homo sapiens, UniProt O15264)
T5 construct: gene MAPK13
T5 sequence (O15264 1-365): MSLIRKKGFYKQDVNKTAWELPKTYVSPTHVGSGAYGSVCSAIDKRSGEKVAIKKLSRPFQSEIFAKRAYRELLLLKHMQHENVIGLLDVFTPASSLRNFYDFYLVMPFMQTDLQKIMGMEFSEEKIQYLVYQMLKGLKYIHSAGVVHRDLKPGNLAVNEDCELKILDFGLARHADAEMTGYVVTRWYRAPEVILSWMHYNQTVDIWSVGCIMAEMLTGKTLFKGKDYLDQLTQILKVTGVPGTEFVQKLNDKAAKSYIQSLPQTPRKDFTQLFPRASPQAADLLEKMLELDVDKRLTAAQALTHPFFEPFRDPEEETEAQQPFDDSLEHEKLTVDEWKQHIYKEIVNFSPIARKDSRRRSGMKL

[2] = read-out: Niraparib (MK-4827) / %Ctrl @ 10000nM
[3] = read-out: Rucaparib / %Ctrl @ 10000nM, binding competition, % of control
[4] = read-out: Olaparib / %Ctrl @ 10000nM
[5] = read-out: Talazoparib (BMN 673) / %Ctrl @ 10000nM

SMILES: NC(=O)c1cccc2cn(-c3ccc([C@@H]4CCCNC4)cc3)nc12 [Niraparib]
percent of control binding at 10 µM (BMPR2; [2]): 96%
percent of control binding at 10 µM (EGFR(G719S); [2]): 74%
percent of control binding at 10 µM (IGF1R; [2]): 97%
percent of control binding at 10 µM (MAP4K3; [2]): 84%
percent of control binding at 10 µM (MST4; [2]): 64%
percent of control binding at 10 µM [1, 2]: 96%
percent of control binding at 10 µM (p38-delta; [2]): 82%

percent of control binding at 10 µM (BMPR2; [3]): 83%
percent of control binding at 10 µM (EGFR(G719S); [3]): 89%
percent of control binding at 10 µM (IGF1R; [3]): 98%
percent of control binding at 10 µM (MAP4K3; [3]): 91%
percent of control binding at 10 µM (MST4; [3]): 67%
percent of control binding at 10 µM [1, 3]: 66%
percent of control binding at 10 µM (p38-delta; [3]): 100%
SMILES: CNCc1ccc(-c2[nH]c3cc(F)cc4c3c2CCNC4=O)cc1 [Rucaparib]

percent of control binding at 10 µM (BMPR2; [4]): 80%
percent of control binding at 10 µM (EGFR(G719S); [4]): 94%
percent of control binding at 10 µM (IGF1R; [4]): 95%
percent of control binding at 10 µM (MAP4K3; [4]): 100%
percent of control binding at 10 µM (MST4; [4]): 91%
percent of control binding at 10 µM [1, 4]: 84%
percent of control binding at 10 µM (p38-delta; [4]): 84%
SMILES: O=C(c1cc(Cc2n[nH]c(=O)c3ccccc23)ccc1F)N1CCN(C(=O)C2CC2)CC1 [Olaparib]

percent of control binding at 10 µM (BMPR2; [5]): 100%
percent of control binding at 10 µM (EGFR(G719S); [5]): 99%
percent of control binding at 10 µM (IGF1R; [5]): 87%
percent of control binding at 10 µM (MAP4K3; [5]): 100%
percent of control binding at 10 µM (MST4; [5]): 89%
percent of control binding at 10 µM [1, 5]: 94%
percent of control binding at 10 µM (p38-delta; [5]): 98%
SMILES: Cn1ncnc1[C@H]1c2n[nH]c(=O)c3cc(F)cc(c23)N[C@@H]1c1ccc(F)cc1 [Talazoparib]
